A value given as a limit tells only on which side of the number the result lay.

For 53 compounds, IC50 results are on record in patent US20240400546A1, “COMPOUNDS AND USES THEREOF” (JANSSEN PHARMACEUTICA NV, priority 2016, published 2024).

For the test, the target named is T1, SCD1 (Homo sapiens, UniProt O00767).
T1 construct: host or cells: S. cerevisiae ole1Δ strain, plasmid pRS316 with TDH3 promoter and CYC1 terminator
T1 sequence (O00767 1-359): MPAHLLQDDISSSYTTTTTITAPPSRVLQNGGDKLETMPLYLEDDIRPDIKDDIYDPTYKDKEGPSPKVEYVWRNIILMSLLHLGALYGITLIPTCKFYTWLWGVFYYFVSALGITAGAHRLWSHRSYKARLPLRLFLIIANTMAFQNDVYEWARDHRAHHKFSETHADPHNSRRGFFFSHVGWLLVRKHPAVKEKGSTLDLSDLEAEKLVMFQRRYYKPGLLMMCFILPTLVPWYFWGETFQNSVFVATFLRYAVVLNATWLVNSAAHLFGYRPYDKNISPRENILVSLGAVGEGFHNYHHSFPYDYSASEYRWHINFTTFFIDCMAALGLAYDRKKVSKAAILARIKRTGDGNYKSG
In words: Growth inhibition of humanized yeast expressing SCD1 as sole desaturase. Format: cell-based. The method, then:
Strain ole1Δ (yeast ole1 deletion mutant) was constructed by deleting OLE1 with NAT-MX6 in BY4741, amplifying the deletion cassette from the genomic DNA of the resulting strain with primers flanking the ORF by 1000 bp upstream and downstream, transforming the resulting deletion cassette into W303 pdr1Δ pdr3Δ, and plating transformants on YPD media containing G418 (200 μg/mL) and nourseothricin (100 μg/mL) with 0.01% TWEEN®-20 and 0.5 mM oleic and palmitoleic acids.
The coding sequence of yeast OLE1 was also cloned into this plasmid). These clones were then transformed into the ole1Δ strain and plated on CSM-Ura media (CSM lacking uracil) with 2% glucose (w/v) and independent colonies were isolated and amplified.
All compound profiling experiments were performed using the same basic protocol. Different genetic backgrounds (e.g., gene deletions) or conditions (e.g., addition of oleic and palmitoleic acid) were replaced as indicated below.
Yeast were cultured using standard techniques in complete synthetic media (CSM) and yeast nitrogen base supplemented with 2% (w/v) carbon source (glucose, raffinose, or galactose) to regulate the expression of the toxic disease protein. An initial starter culture was inoculated in 3 mL CSM-Glucose media and incubated overnight in a 30° C. shaker incubator (225 rpm). Saturated morning cultures were then diluted 1:20 in fresh CSM-Raffinose media and grown for 6 h to an OD600 (optical density) of ˜0.4-0.8 at 30° C. with shaking.
Compound administration was performed in two separate steps. First, 15 μL of CSM-Galactose (induces expression of toxic protein) was dispensed into clear 384 well assay plates using a MULTIDROP™ Combi reagent dispenser. […] The cultures described above were then diluted to a 2× concentration (0.03 and 0.08 for alpha-synuclein and ApoE, final OD600 of 0.015 and 0.04) in CSM-Galactose. For wild-type and Ole1/SCD1/SCD5 plasmid-containing strains, the 2× cell density was 0.02. […] For 96-well assays (FIGS. 1A and 1B), compound dilutions in DMSO were generated in 96 well plates and 1 μL was manually pipetted into 96 well clear bottom assay plates.
For experiments using a plasmid-borne copy of Ole1, SCD1, or SCD5 (FIGS. 3B, 6, and 7), media lacking uracil (SX-Ura, where X is glucose, raffinose, or galactose), was used for all steps of the compound profiling protocol to ensure its maintenance throughout the assay.
After yeast delivery, assay plates were incubated under humidified conditions at 30° C. for 24 to 40 h. ApoE4 rescue experiments were stopped at 24 h, aSyn experiments at 40 h, Ole1 at 24 h, and SCD1/SCD5 at 40 h. The growth of yeast was monitored by reading the OD600 of each well using a microplate reader (Perkin Elmer EnVision™).

The mark [1] stands for this setting: humanized yeast expressing human SCD1.
The mark [2] stands for this setting: humanized yeast expressing SCD1.

As to `N#Cc1cccc(N2C[C@H](C(=O)N3CCC(c4nc(-c5ccc6cnn(C7COC7)c6c5)no4)CC3)CC2=O)c1` [Compound 600], under setting [1], the IC50 (usually the concentration that inhibits the measured activity by half) is above 45 µM. The same measure, in the same setting: as for `CC(C)(C)OC(=O)N1CCC(c2nc(-c3ccc4cnn(C5CC5)c4c3)no2)CC1` [Compound 360], the figure is above 45 µM; as for `CCn1nc2cc(-c3noc(C4CCN(C(=O)CNC(=O)c5ccccc5)CC4)n3)ccc2c1C` [Compound 320], above 45 µM.

`CC(C)n1ncc2ccc(-c3noc(N4CCN(C(=O)c5ccccc5Cl)CC4)n3)cc21` [Compound 364] yielded an IC50 under setting [1] above 45 µM. As for `CC(C)n1ncc2ccc(-c3noc(C4CCN(C(=O)c5ccc(Cl)cc5F)CC4)n3)cc21` [Compound 533], the IC50 under setting [1] is above 45 µM. The same measure, in the same setting: then `Cc1noc2cc(-c3noc(C4CCN(C(=O)OC5(C)CC5)CC4)n3)ccc12` [Compound 590], with above 45 µM. Same read-out and setting: as for `CC(C)c1ccc(C(=O)N2CCC(c3nc(C(=O)Nc4ccnn4C)no3)CC2)cc1` [Compound 287], the figure is above 45 µM. Same read-out and setting: as for `CC(C)N1C(=O)CCc2ccc(-c3noc(C4CCN(C(=O)OC(C)(C)C)CC4)n3)cc21` [Compound 572], the figure is above 45 µM; as for `Cc1nn(C)c2cc(-c3noc([C@@H]4CCN(C(=O)CNC(=O)c5ccccc5)CC4(F)F)n3)ccc12` [Compound 577], above 45 µM; as for `Cc1nn(C)c2cc(-c3noc(C4CCN(C(=O)Oc5ccccc5)CC4)n3)ccc12` [Compound 272], above 45 µM.

In the case of `Cc1nn(C)c2cc(-c3noc(C4CCN(C(=O)CC(C)(C)C)CC4)n3)ccc12` [Compound 263], under setting [1], the IC50 was above 45 µM. On the same count and under the same terms, as for `CC(C)n1ncc2ccc(-c3noc(C4CCN(C(=O)c5ccc(Cl)cn5)CC4)n3)cc21` [Compound 586], the figure is above 45 µM; as for `Cn1c(=O)n(C)c2cc(-c3noc(C4CCN(C(=O)[C@H]5CC(=O)N(c6ccccn6)C5)CC4)n3)ccc21` [Compound 256], above 45 µM. Same read-out and setting: as for `Cn1ncc2ccc(-c3noc(C4CCN(C(=O)OC(C)(C)C)CC4)n3)cc21` [Compound 359], the figure is above 45 µM; as for `Cc1nn(C)c2cc(-c3noc(N4CCN(C(=O)c5ccccc5)CC4)n3)ccc12` [Compound 261], above 45 µM; as for `O=C(NCC(=O)N1CCC(c2nc(-c3ccc4cnn(C5COC5)c4c3)no2)CC1)c1ccccc1` [Compound 598], above 45 µM.

As for `O=C(CNC(=O)c1ccccc1)NCCc1nc(-c2ccccc2)no1` [Compound 485], the IC50 under setting [2] was above 45 µM.

`COC(=O)N1C[C@H]2CN(c3nc(-c4ccc5cnn(C(C)C)c5c4)no3)C[C@@H]2C1` [Compound 568] registered an IC50 under setting [1] above 45 µM. The compound `CC(C)n1ncc2ccc(N3CC4(CCN(C(=O)c5ccccc5Cl)CC4)C3)cc21` [Compound 534] returned a 50% inhibitory concentration (IC50) under setting [1] above 45 µM. Same read-out and setting: as for `CC(C)c1ccc(C(=O)N2CCC(c3nc(C(=O)Nc4cnn(C)c4)no3)CC2)cc1` [Compound 285], the figure is above 45 µM. In the case of `Cc1nn(C)c2cc(-c3noc(N4CCN(C(=O)c5ccccc5C(F)(F)F)CC4)n3)ccc12` [Compound 295], the IC50 under setting [1] was above 45 µM. Same read-out and setting: as for `Cc1nn(C2CC2)c2cc(-c3noc(C4CCN(C(=O)CNC(=O)c5ccccc5)CC4)n3)ccc12` [Compound 286], the figure is above 45 µM. `COc1ccc(-c2noc(CCNC(=O)CNC(=O)c3ccccc3)n2)cc1OC` [Compound 484] had an IC50 under setting [2] above 45 µM.

Compound `COc1ccc(-c2noc(CCNC(=O)COc3cc(O)c4c(c3)OC(C)(C)CC4=O)n2)cc1OC` [Compound 486] came in with an IC50 under setting [2] above 45 µM. On to `CC(C)n1ncc2ccc(N3CC4(CCN(C(=O)OC5CC5)CC4)C3)cc21` [Compound 594], for which the IC50 under setting [1] is above 45 µM. On the same count and under the same terms, then `CC(C)n1ncc2ccc(-c3noc(N4CCN(C(=O)c5ccccc5)CC4)n3)cc21` [Compound 362], with above 45 µM. `CC(C)n1ncc2ccc(-c3noc(C4CCN(C(=O)c5ncccc5Cl)CC4)n3)cc21` [Compound 587] showed an IC50 under setting [1] above 45 µM.

Consider `Cc1nn(C)c2cc(-c3nc(C4CCN(C(=O)CNC(=O)c5ccccc5)CC4)no3)ccc12` [Compound 326], for which the half-inhibitory concentration (IC50) under setting [1] was above 45 µM. The same measure, in the same setting: then `Cc1nn(C)c2cc(-c3noc(C4CCN(C(=O)c5ccc(Cl)cc5)CC4)n3)ccc12` [Compound 291], with above 45 µM. Still for that read-out and setting: as for `CC(C)n1ncc2ccc(-c3noc(N4C[C@@H]5CNC[C@H]5C4)n3)cc21` [Compound 530], the figure is above 45 µM; as for `COC(=O)N1CCN(c2nc(-c3ccc4cnn(C(C)C)c4c3)no2)CC1` [Compound 356], above 45 µM; as for `O=C(CC1CC1)N1CCC(c2nc(-c3ccc4cnn(C5COC5)c4c3)no2)CC1` [Compound 558], above 45 µM.

For `Cn1ncc2ccc(-c3noc(N4CCN(C(=O)OC(C)(C)C)CC4)n3)cc21` [Compound 545], under setting [1], the IC50 was above 45 µM. Same read-out and setting: then `CC1(CC(=O)N2CCC(c3nc(-c4ccc5cnn(C6COC6)c5c4)no3)CC2)CC1` [Compound 559], with above 45 µM; and `Cc1nn(C)c2cc(-c3noc(C4CCN(C(=O)CC5COC5)CC4)n3)ccc12` [Compound 592], with above 45 µM; and `O=C([C@H]1CC(=O)N(c2ccccc2)C1)N1CCC(c2nc(-c3ccc(Br)s3)no2)CC1` [Compound 248], with above 45 µM.

Take `CC(C)n1ncc2ccc(-c3noc(C4CCN(C(=O)COc5ccccc5)CC4)n3)cc21` [Compound 358]: the IC50 under setting [1] is above 45 µM. The same measure, in the same setting: as for `Cc1nn(C)c2cc(-c3noc(C4CCN(C(=O)c5ccc(C(C)C)cc5)CC4)n3)ccc12` [Compound 290], the figure is above 45 µM. Consider `Cc1nn(C)c2cc(-c3noc(C4CCN(C(=O)CNC(=O)c5cc(F)ccc5C(F)(F)F)CC4)n3)ccc12` [Compound 304], for which the IC50 under setting [1] was above 45 µM.

Turning to `CC(C)n1ncc2ccc(-c3noc(C4CCN(C(=O)c5cccs5)CC4)n3)cc21` [Compound 574], the IC50 under setting [1] is above 45 µM. Compound `O=C(c1ccccc1)N1CCC(c2nc(N3CC4(CCCO4)C3)no2)CC1` [Compound 335] came in with an IC50 under setting [1] above 45 µM. Same read-out and setting: then `Cc1nn(C)c2cc(-c3noc(C4CCN(C(=O)c5ccccc5)CC4)n3)ccc12` [Compound 280], with above 45 µM. The same measure, in the same setting: then `CC1(OC(=O)N2CCC(c3nc(-c4ccc5cnn(C6COC6)c5c4)no3)CC2)CC1` [Compound 576], with above 45 µM; and `CC(C)n1ncc2ccc(-c3nc(C4CCN(C(=O)c5cccc(F)c5)CC4)no3)cc21` [Compound 506], with above 45 µM. The same measure, in the same setting: as for `CC(C)n1ncc2ccc(-c3nc(C4CCN(C(=O)c5ccccn5)CC4)no3)cc21` [Compound 499], the figure is above 45 µM; as for `CC(C)n1ncc2ccc(-c3noc(C4CCN(C(=O)c5ccccc5F)CC4)n3)cc21` [Compound 532], above 45 µM; as for `CC(C)n1ncc2ccc(-c3noc(C4CCN(C(=O)c5ccsn5)CC4)n3)cc21` [Compound 588], above 45 µM. `Cc1nn(C)c2cc(-c3noc(C4CCN(C(=O)CC5CN(C(=O)OC(C)(C)C)C5)CC4)n3)ccc12` [Compound 502] returned an IC50 under setting [1] above 45 µM. The same measure, in the same setting: then `COC(=O)N1CCC2(CC1)CN(c1nc(-c3ccc4cnn(C(C)C)c4c3)no1)C2` [Compound 570], with above 45 µM. Still for that read-out and setting: then `Cc1nn(C)c2ccc(-c3noc(C4CCN(C(=O)c5ccc(C(C)C)cc5)CC4)n3)cc12` [Compound 297], with above 45 µM; and `Cc1nn(C)c2cc(-c3noc(C4CCN(C(=O)CNC(=O)c5ccc(Cl)cc5)CC4)n3)ccc12` [Compound 269], with above 45 µM. Same read-out and setting: then `COc1cc(-c2noc(C3CCN(C(=O)CNC(=O)c4ccccc4)CC3)n2)ccc1OC1CC1` [Compound 249], with above 45 µM; and `CC(C)n1ncc2ccc(-c3noc(N4C[C@@H]5CN(C(=O)CC(C)(C)C)C[C@H]5C4)n3)cc21` [Compound 569], with above 45 µM.
